Source: publication PMC6272622, “Phytochemical Profiling and Evaluation of Pharmacological Activities of Hypericum scabrum L” (Molecules, 2015)
Where two headings read alike, the source gives them in different places.

How the values were obtained:
[1] = DPPH radical scavenging assay; conditions: 37 °C, 30 min, 515 nm; for IC50: pure compounds, read-out: DPPH Scavenging Effects, IC50 Values
Procedure: Radical scavenging assay was determined by a micro plate spectrophotometric method based on the reduction of DPPH according to the previous report. Various dilutions of pure compounds and crude extracts in the concentration range 0.0625 to 1 mM and 0.0625 to 1 mg∙mL^−1, respectively were made. Briefly DPPH solution (100 μL) and pure compound or crude extract in DMSO (100 μL) were added to each well of the micro plate and mixed. The mixture was shaken vigorously and left to stand at 37 °C for 30 min in dark. The absorbance of the solution was then measured at wavelength 515 nm using a micro plate spectrophotometer. Inhibition (%) of free radical (DPPH) was determined as [(Acontrol − Asample)/Acontrol] × 100, where: Acontrol is the absorbance of the control sample containing all reagents except the test sample and Asample is the absorbance of the test sample (pure compound or crude extract). Vitamin C was used as the positive control and tests were carried out in triplicate. The IC50 values were determined for all tested flavonoids, extract and control standard antioxidant.

[2] = tested on: Candida albicans ATCC 10231; test: Antimicrobial activity, agar well diffusion method; format: cell-based; conditions: 37 °C, 24 h
Procedure: (§1) Antimicrobial activity of compounds 1 to 6 and crude extracts 7a, 8a, 9a; 10 to 13 were measured using the agar well diffusion method. Bacterial and fungal pathogens such as S. aureus (ATCC 6538), E. coli (ATCC 11229) and C. albicans (ATCC 10231) were used as indicator strains for this analysis. These microorganisms were aseptically inoculated into appropriate liquid media and incubated at 37 °C. After 16 h, the cells were centrifuged at 6000 rpm for 10 min and then suspended in sterile water. The different cells (1 mL) were added to appropriate agar media (100 mL) prior to plating, and the wells were made using an agar well borer. To these wells, different concentrations of compounds 1 to 6 and the extracts 7a, 8a, 9a; 10 to 13 were added and subsequently incubated at 37 °C for 24 h. Zones of inhibition were estimated by measuring the diameter of the microbial growth inhibition zones. Values were averaged from three independent experiments.

[3] = tested on: Escherichia coli ATCC 11229; test: Antimicrobial activity, agar well diffusion method; format: cell-based; conditions: 37 °C, 24 h
Procedure: as §1

[4] = tested on: Staphylococcus aureus ATCC 6538; test: Antimicrobial activity, agar well diffusion method; format: cell-based; conditions: 37 °C, 24 h
Procedure: as §1

[5] = molecular target: T1, Protein tyrosine phosphatase 1B (PTP-1B) (Homo sapiens, UniProt P18031); test: Protein tyrosine phosphatase 1B (PTP-1B) inhibition assay with pNPP substrate; format: biochemical
T1 sequence (P18031 1-435): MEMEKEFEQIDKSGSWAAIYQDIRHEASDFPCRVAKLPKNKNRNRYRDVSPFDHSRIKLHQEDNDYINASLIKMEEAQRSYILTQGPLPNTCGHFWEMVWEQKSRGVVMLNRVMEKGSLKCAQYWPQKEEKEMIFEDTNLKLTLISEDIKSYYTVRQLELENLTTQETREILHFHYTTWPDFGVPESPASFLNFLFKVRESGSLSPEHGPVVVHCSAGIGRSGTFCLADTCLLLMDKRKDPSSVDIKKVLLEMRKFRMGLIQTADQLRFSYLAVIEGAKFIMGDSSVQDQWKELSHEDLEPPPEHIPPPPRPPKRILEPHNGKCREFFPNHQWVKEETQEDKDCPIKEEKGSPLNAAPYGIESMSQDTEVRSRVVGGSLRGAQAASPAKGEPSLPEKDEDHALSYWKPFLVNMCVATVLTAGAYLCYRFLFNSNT
Procedure: Compounds were pre-incubated with the enzyme at room temperature for 5 min. Then, 178 µL of buffer solution (20 mM HEPES, 150 mM NaCl, 1 mM EDTA) was added in 96-well plates. […] After that, 1 µL of test and positive control sample were added. Thereafter, 20 µL of the substrate pNPP (35 mM) was added and mixed for 10 min. The plate was incubated in the dark for 30 min and the reaction was terminated by adding 10 µL of 3 M NaOH. The absorbance was then determined at 405 nm wavelength. […] Inhibition (%) = [(OD405 − OD405 blank)/OD405 blank] × 100. IC50 was calculated from the percentage inhibition values.

[6] = pNPP substrate, absorbance at 405 nm

SMILES	IC50 [1] [µM]	Inhibition Zone Diameter CA [2]	Inhibition Zone Diameter EC [3]	Inhibition Zone Diameter SA [4]	IC50 [5, 6] [µM]	IC50 [5] [µM]	DPPH Scavenging Effects; IC50 Values ([1]; crude extracts) [µg/mL]
O=c1c(O)c(-c2ccc(O)c(O)c2)oc2cc(O)cc(O)c12 [Compound 2, Quercetin]	24.9 ± 1.4	6.5 mm	n.e.	12 mm	–	–	–
O=c1c(-c2c(O)cc(O)c3c(=O)cc(-c4ccc(O)cc4)oc23)c(-c2ccc(O)cc2)oc2cc(O)cc(O)c12 [Compound 1, 3-8′′-Bisapigenin]	> 500	n.e.	n.e.	5.5 mm	> 50	–	–
O=c1c(O[C@@H]2O[C@H](CO)[C@@H](O)[C@H](O)[C@H]2O)c(-c2ccc(O)c(O)c2)oc2cc(O)cc(O)c12 [Compound 5, Quercetin-3-O-β-D-glucopyranoside]	24.8 ± 1.3	n.e.	n.e.	11 mm	> 50	–	–
C[C@@H]1[C@H](O)[C@@H](C)/C=C/C=C/C=C/C=C/C=C/C=C/C=C/[C@H](O[C@@H]2O[C@H](C)[C@@H](O)[C@H](N)[C@@H]2O)C[C@@H]2O[C@](O)(C[C@@H](O)C[C@@H](O)[C@H](O)CC[C@@H](O)C[C@@H](O)CC(=O)O[C@H]1C)C[C@H](O)[C@H]2C(=O)O [Amphotericin B, reference compound]	–	15 mm	–	–	–	–	–
O=c1c(O[C@@H]2O[C@@H](CO)[C@H](O)[C@H]2O)c(-c2ccc(O)c(O)c2)oc2cc(O)cc(O)c12 [Compound 3, Quercetin-3-O-α-L-arabinofuranoside]	38.3 ± 2	n.e.	5.5 mm	n.e.	> 50	–	–
CC1(C)S[C@@H]2[C@H](NC(=O)[C@H](N)c3ccccc3)C(=O)N2[C@H]1C(=O)O [Ampicillin, reference compound]	–	–	14 mm	19 mm	–	–	–
O=c1c(O[C@@H]2O[C@H](CO)[C@H](O)[C@H](O)[C@H]2O)c(-c2ccc(O)c(O)c2)oc2cc(O)cc(O)c12 [Compound 6, Quercetin-3-O-β-D-galactopyranoside]	29.5 ± 1.5	n.e.	6.5 mm	11 mm	> 50	–	–
C[C@@H]1O[C@@H](Oc2c(-c3ccc(O)c(O)c3)oc3cc(O)cc(O)c3c2=O)[C@H](O)[C@H](O)[C@H]1O [Compound 4, Quercetin-3-O-α-L-rhamnoside]	32.1 ± 1.6	5.5 mm	8 mm	n.e.	–	> 50	–
O=C1O[C@H]([C@@H](O)CO)C(O)=C1O [Vitamin C, reference compound]	30.3 ± 2.4	–	–	–	–	–	5.34 ± 0.4
